Test results reported in patent EP1169044B1, “USE OF FUCOSYLATED SIALYLATED N-ACETYL LACTOSAMINE CARBOHYDRATE STRUCTURES FOR INHIBITION OF BACTERIAL ADHERENCE” (Borén, Thomas, priority 1999, dated 2000).

Assays:
[1] = system: Helicobacter pylori strain CCUG 17875; experiment: thin-layer chromatogram binding assay (radiolabelled bacteria overlaid on separated glycosphingolipids); conditions: glycosphingolipids on thin-layer chromatograms, autoradiogram
Protocol: (§1) The glycosphingolipids were separated and (A) visualised with anisaldehyde. Duplicate chromatograms were incubated with monoclonal (B) anti-sialyl-Lewis x, (C) anti-sialyl-Lewis a, and radiolabelled H. pylori (D) strain CCUG 17875, (E) the BabA1A2 mutant strain, and (F) strain CCUG 17874. Autoradiography was for 12 hr. The lanes contained: 1, Acid glycosphingolipids of calf brain, 40 µg; 2, Acid glycosphingolipids of human neutrophil granulocytes, 40 µg; 3, Acid glycosphingolipids of human neutrophil granulocytes after de-sialylation, 40 µg; 4, Acid glycosphingolipids of human gall bladder adenocarcinoma, 40 µg; 5, Acid glycosphingolipids of human gall bladder adenocarcinoma after de-sialylation, 40 µg; 6, NeuAcα3Galβ4(Fucα3)GlcNAcβ3Galβ4(Fucα3)GlcNAcβ3Galβ4Glcβ1Cer isolated from human gall bladder adenocarcinoma, 1 µg; 7, NeuAcα3Galβ3(Fucα4)GlcNAcβ3Galβ4Glcβ1-Cer (sialyl-Lewis a hexaglycosylceramide) isolated from human gall bladder adenocarcinoma, 4 µg; 8, NeuAcα3Galβ4(Fucα3)GlcNAcβ3Galβ4Glcβ1Cer (sialyl-Lewis x hexaglycosyl-ceramide), 4 µg; 9, Fucα2Galβ3(Fucα4)GlcNAcβ3Galβ4Glcβ1Cer (Lewis b-6 hexaglycosylceramide) of human small intestine, 4 µg.
(§2) Culture and ^35S-labelling of H. pylori was as outlined in (Ångström, J., Teneberg, S., Abul Milh, M,. Larsson, T., Leonardsson, I., Olsson, B.-M., Ölwegård Halvarsson, M., Danielsson, D., and Karlsson, K.-A. (1998). The lactosylceramide binding specificity of Helicobacter pylori. Glycobiology 8, 297-309.). Mixtures of glycosphingolipids (20-40 µg/lane) or pure compounds (0.002-4 µg/lane) were separated on aluminium-backed silica gel 60 HPTLC plates (Merck), using chloroform:methanol:water 60:35:8 (v/v/v) as solvent system. Chemical detection was done with anisaldehyde (Waldi, D. (1962) Sprühreagentien für die dünnschicht-chromatographie. In Dünnschicht-Chromatographie, E. Stahl ed. (Berlin: Springer-Verlag) pp. 496-51).
(§3) Binding of radiolabelled H. pylori to glycosphingolipids on thin-layer chromatograms was performed as described above (Ångström et al., 1998) using suspensions of bacteria diluted in phosphate-buffered saline (PBS), pH 7.3, to 1x10^8 CFU/ml. The specific activities of the suspensions were approximately 1 CPM per 100 H. pylori organisms. Binding of monoclonal antibodies was done as described (Magnani, J.L., Brockhaus, M., Smith, D.F., Ginsburg, V., Blaszczyk, M., Mitchell, K.F., Steplewski, Z., and Koprowski, H. (1981). A monosialoganglioside is a monoclonal antibody-defined antigen of colon-carcinoma. Science 212, 55-56). Anti-sialyl-Lewis x monoclonal antibodies (clone KM-93) were from Seikagaku Corp., Tokyo, Japan and anti-sialyl-Lewis a monoclonal antibodies (CA 19-9) from Signet Laboratories, Inc., Dedham, MA 02026, USA.
(§4) Screening of potential receptor structures unique for thebabA1/babA2-mutant was performed by adherence experiments to well-defined panels of MS-characterized glycolipids, from defined and unique sources and tissues. Binding of H. pylori and monoclonal antibodies to glycosphingo-lipids was evaluated using the thin-layer chromatogram binding assay (J. Ångström et al., Glycobiology 8, 297 (1998); J. M. McKibbin et al., J. Biol. Chem. 257,755 (1982)), i.e., glyco-lipids were separated on HPTLC-plates, and H. pylori CCUG 17875 wild type bacteria and the babA1/babA2-mutant were overlaid on the plates and binding of radio labelled bacterial cells was detected. (See Experimental procedures).

[2] = system: strain CCUG 17874, the BabA2 mutant and the BabA1A2 mutant; experiment: as above; design: species or system Helicobacter pylori; conditions: for Binding obtained with strain CCUG 17874, the babA2 mutant and the babA1A2 mutant: glycosphingolipids on thin-layer chromatograms, autoradiogram; for binding to glycosphingolipids on thin-layer chromatograms (in words): CCUG 17874, babA2 mutant, babA1A2 mutant
Protocol: as §1, §2, §3, §4

H. pylori strains = experiment: radio immuno analysis (RIA) with 125I-labelled neoglycoconjugates; format: binding, Helicobacter pylori; conditions: strains of Fig. 4 (BabA2 mutant, babA1A2 mutant, CCUG 17875, CCUG 17874), 400 ng conjugate, 30 min
Protocol: Bars, from the left to the right; The sialyl-alfa2.61actose-, sialyl-alfa2.31actose-, sialyl-Lewis a-, sialyl-Lewis x-, and Lewis b-, synthesised sialyl-Lewis x- sialyl-acetyllactosaminee, both with a either a 3 carbon or 14 carbon (extended/hydrophilic) spacer, conjugated to albumin, Finally, the histo-blood group antigen Lewis y (synthesised penta-saccharide) (V. Behar and S.J. Danishefsky, Angew. Chem. Int. Ed. Engi, 1994, 33, no. 14, 1468.), was analysed as a neo-glycoconjugate.
(§5) The sialyl-alfa2.3lactose-, sialyl-alfa2.61actose-, sialyl-Lewis a-, and Lewis b-oligosaccharide antigens used for neoglycoconjugate preparations were purified by HPLC, structurally identified and characterized with NMR-spectroscopy, and more than 95% pure. These conjugates were attached to albumin with an APD (acetylphenylenediamine) spacer attached to the carbohydrate by reductive animation and thus the terminal reducing monosaccharide unit of the oligosaccharide is reduced and is present as an aminoalditol, IsoSep AB, Tullinge, Sweden (T. Borén, P. Falk, K. A. Roth, G. Larson, and S. Normark, Science. 262, 1892 (1993), P. D. Rye, Nature Biotechnology 2, 155 (1996)). The synthesised sialyl-Lewis x- tetrasaccharide antigen was conjugated to albumin with the MPE (mercaptopropionyl-amidoethyl) -spacer, IsoSep AB. Synthesised sialyl-Lewis x-tetrasaccharide and sialyl-acetyllactosaminee, both with a either a 3 carbon or 14 carbon (extended/hydrophilic) spacer, conjugated to albumin, were obtained from Dextra Laboratories, Reading, UK. The RIA (Fig. 4) was performed according to (P. Falk, T. Borén, D. Haslam, M. G. Caparon, Meth. Cell Biol. 45, 161 (1994)) with minor modifications; the glycoconjugates were ^125I-labelled by the Chloramine T method. 1 ml of bacteria (A600= OD 0.10) was incubated with 400 ng of ^125I-labelled conjugate (that is an excess of receptor substrate) for 30 min. in phosphate buffered saline (PBS), 0.5 % albumin, 0.05 % Tween-20 (BB-buffer). After centrifugation, the ^125I-activity bound to the bacterial pellet was measured by gamma scintillation counting. Binding experiments were reproducible and performed in triplets. In addition, the level of binding-activity within the strain was stabile.

babA1A2-mutant = experiment: Scatchard affinity analysis with sialylated conjugates; format: binding, Helicobacter pylori
Source text: as §5, with “1 ml of bacteria (A600= OD 0.10) was incubated with 400 ng of ^125I-labelled conjugate (that is an excess of receptor substrate) for 30 min. in phosphate buffered saline (PBS), 0.5 % albumin, 0.05 % Tween-20 (BB-buffer).” left out, “Binding experiments were reproducible and performed in triplets. In addition, the level of binding-activity within the strain was stabile.” left out

Question: With “Galβ3GalNAcβ4(NeuAcα8NeuAcα3)Galβ4Glcβ1Cer [GD1b]” as the compound, how does the “Binding obtained with strain CCUG 17875” value ([1]; Table 1) read?
Answer: - (- denotes no darkening even at 2 nmol)

Question: And the “Binding obtained with strain CCUG 17875” value ([1]; Table 2)?
Answer: - (– denotes no darkening even at 2 nmol)

Question: And the “Binding obtained with strain CCUG 17874, the babA2 mutant and the babA1A2 mutant” value ([2]; Table 1)?
Answer: - (- denotes no darkening even at 2 nmol)

Question: What about the “Binding obtained with strain CCUG 17874, the babA2 mutant and the babA1A2 mutant” value ([2]; Table 2) of the same compound?
Answer: - (– denotes no darkening even at 2 nmol)

Question: Which results are given for “NeuAcα3Galβ4(Fucα3)GlcNAcβ3Galβ4(Fucα3)GlcNAcβ3Galβ4Glcβ1Cer”?
Answer: Binding obtained with strain CCUG 17875 ([1]; Table 1): - (- denotes no darkening even at 2 nmol); Binding obtained with strain CCUG 17875 ([1]; Table 2): - (– denotes no darkening even at 2 nmol); Binding obtained with strain CCUG 17874, the babA2 mutant and the babA1A2 mutant ([2]; Table 1): +++ (+++ denotes a significant darkening on the autoradiogram when 1 pmol was applied on the thin-layer plate); Binding obtained with strain CCUG 17874, the babA2 mutant and the babA1A2 mutant ([2]; Table 2): +3 (+3 denotes a significant darkening on the autoradiogram when 1 pmol of structure was applied on the thin-layer plate); detection level ([2]; binding on thin-layer chromatogram): approximately 1 pmol

Question: How did the “binding of 125I-labelled neoglycoconjugate (in words)” value (H. pylori strains) turn out when “Neu5Acα3Galβ4GlcNAc [equivalent structure linked by a shorter, 3 carbon spacer]” was run?
Answer: much reduced in binding

Question: For NeuAcα3Galβ4Glcβ1Cer [GM3], which “Binding obtained with strain CCUG 17875” value ([1]; Table 1) is on record?
Answer: - (- denotes no darkening even at 2 nmol)

Question: What about the “Binding obtained with strain CCUG 17875” value ([1]; Table 2) of the same compound?
Answer: - (– denotes no darkening even at 2 nmol)

Question: And the “Binding obtained with strain CCUG 17874, the babA2 mutant and the babA1A2 mutant” value ([2]; Table 1)?
Answer: - (- denotes no darkening even at 2 nmol)

Question: What about the “Binding obtained with strain CCUG 17874, the babA2 mutant and the babA1A2 mutant” value ([2]; Table 2) of the same compound?
Answer: - (– denotes no darkening even at 2 nmol)

Question: Which “Binding obtained with strain CCUG 17875” value ([1]; Table 2) does the source give for “NeuAcα3Galβ3(Fucα4)GlcNAcβ3Galβ4Glcβ1Cer [S-Le^a]” here?
Answer: - (– denotes no darkening even at 2 nmol)

Question: What about the “binding to glycosphingolipids on thin-layer chromatograms (in words)” value [2] of the same compound?
Answer: almost no binding

Question: What about the “Binding obtained with strain CCUG 17874, the babA2 mutant and the babA1A2 mutant” value ([2]; Table 2) of the same compound?
Answer: - (– denotes no darkening even at 2 nmol)

Question: Which “Binding obtained with strain CCUG 17875” value ([1]; Table 1) does the source give for “Fucα2Galβ3(Fucα4)GlcNAcβ3Galβ4Glcβ1Cer [Le^b-6]” here?
Answer: +^3 (+ denotes a darkening at 2 nmol)

Question: And the “Binding obtained with strain CCUG 17875” value ([1]; Table 2)?
Answer: +3 (+3 denotes a significant darkening on the autoradiogram when 1 pmol of structure was applied on the thin-layer plate)

Question: What about the “binding to glycosphingolipids on thin-layer chromatograms (in words)” value [2] of the same compound?
Answer: did not recognize

Question: And the “Binding obtained with strain CCUG 17874, the babA2 mutant and the babA1A2 mutant” value ([2]; Table 1)?
Answer: - (- denotes no darkening even at 2 nmol)

Question: And the “Binding obtained with strain CCUG 17874, the babA2 mutant and the babA1A2 mutant” value ([2]; Table 2)?
Answer: - (– denotes no darkening even at 2 nmol)

Question: What does the source list for “NeuAcα3Galβ4(Fucα3)GlcNAcβ3Galβ4Glcβ1Cer [S-Le^x]”?
Answer: binding to glycosphingolipids on thin-layer chromatograms (in words) [2]: weak binding; amount required for binding ([2]; weak, occasionally observed binding on thin-layer chromatogram): 2 nmol

Question: Which results are given for “Galβ3GalNAcβ4(NeuAcα3)Galβ4Glcβ1Cer [GM1]”?
Answer: Binding obtained with strain CCUG 17875 ([1]; Table 1): - (- denotes no darkening even at 2 nmol); Binding obtained with strain CCUG 17875 ([1]; Table 2): - (– denotes no darkening even at 2 nmol); Binding obtained with strain CCUG 17874, the babA2 mutant and the babA1A2 mutant ([2]; Table 1): - (- denotes no darkening even at 2 nmol); Binding obtained with strain CCUG 17874, the babA2 mutant and the babA1A2 mutant ([2]; Table 2): - (– denotes no darkening even at 2 nmol)

Question: How did the “binding of 125I-labelled neoglycoconjugate (in words)” value (H. pylori strains) turn out when `CC(=O)N[C@H]1[C@H]([C@H](O)[C@H](O)CO)O[C@@](O[C@H]2[C@@H](O)[C@@H](CO)O[C@@H](O[C@H]3[C@H](O)[C@@H](O)C(O)O[C@@H]3CO)[C@@H]2O)(C(=O)O)C[C@@H]1O` (some centres unmarked) [sialyl-alfa2.31actose antigen, Neu5Acα3Galβ4Glc] was run?
Answer: Poor binding

Question: And the fold lower affinity (babA1A2-mutant; compared with the fucosylated sialyl-Lewis x structures)?
Answer: 20 fold

Question: What about the Kd (babA1A2-mutant; read-out: affinity according to Scatchard) of the same compound?
Answer: 100 nM

Question: “Neu5Acα3Galβ4GlcNAc [alfa2.31actoseamine with a 14 carbon spacer]” was tested. Which “binding of 125I-labelled neoglycoconjugate (in words)” value (H. pylori strains) did it give?
Answer: rather efficient binding

Question: Which results are given for `CC(=O)NC1C(O)CC(OCC2OC(OC3C(CO)OC(O)C(O)C3O)C(O)C(O)C2O)(C(=O)O)OC1C(O)C(O)CO` (centres unmarked) [sialyl-alfa2.61actose antigen, Neu5Acα6Galβ4Glc]?
Answer: binding of 125I-labelled neoglycoconjugate (in words) (H. pylori strains): Poor binding; binding of 125I-labelled neoglycoconjugate (in words) (H. pylori strains; listed as sialyl-alfa 2,6 lactose conjugate): did not demonstrate any binding activity

Question: For “NeuAcα3Galβ3GalNAcβ4(NeuAcα3)Galβ4Glcβ1Cer [GD1a]”, which “Binding obtained with strain CCUG 17875” value ([1]; Table 1) is on record?
Answer: - (- denotes no darkening even at 2 nmol)

Question: What about the “Binding obtained with strain CCUG 17875” value ([1]; Table 2) of the same compound?
Answer: - (– denotes no darkening even at 2 nmol)

Question: What about the “Binding obtained with strain CCUG 17874, the babA2 mutant and the babA1A2 mutant” value ([2]; Table 1) of the same compound?
Answer: - (- denotes no darkening even at 2 nmol)

Question: And the “Binding obtained with strain CCUG 17874, the babA2 mutant and the babA1A2 mutant” value ([2]; Table 2)?
Answer: - (– denotes no darkening even at 2 nmol)
